# Measurements reported in US20260306644A1, “ANTIBODY RECRUITING MOLECULES FOR THE TREATMENT OF CORONAVIRUS DISEASE-19” (priority 2023, published 2026).
# Values joined by “and” are separate entries in the source; they are usually repeats but may differ in a detail not shown here. Equal entries are not always repeated. Where two headings read alike, the source gives them in different places. Positions of bridges follow the written chain, without caps; N, C: chain ends. Non-standard residues stand in square brackets, D forms with d. Residues, ends and D or L forms follow the SMILES beside them. No end group written: not given here. *: point of attachment. Biotin = O=C1N[C@H]2[C@H](CS[C@H]2CCCCC(=O)*)N1; PEG4 = NCCOCCOCCOCCOCCC(=O)O; Nle = CCCC[C@H](N)C(=O)O; Aib = CC(C)(N)C(=O)O
# Legend:
# [1] = biological target: T1, SARS-CoV-2 Spike A (wild-type) (Severe acute respiratory syndrome coronavirus 2, UniProt P0DTC2); test: MSD ACE2 competition assay (inhibition of Spike binding with ACE2, ECL), A (wild-type); settings: IC50 Wild Type, Wild Type Spike
# T1 construct: purchased Meso Scale Diagnostics, LLC V-PLEX SARS-CoV-2 Panel 13 (ACE2) Kit / Panel 23 (ACE2) Kit
# SARS-CoV-2 Spike protein = SARS-CoV-2 Spike protein (Severe acute respiratory syndrome coronavirus 2, UniProt P0DTC2); test: Ternary binding of SARS-CoV-2 Spike protein (293T cells expressing Spike-GFP, IgG-AF647, flow cytometry); assay type: cell-based; settings: IgG-AF647 10 μg/ml, repeat values/batches listed separately, read-out: SARS-CoV-2 Ternary binding EC50
# [2] = test system: Spike RBD coated magnetic beads / RAW 264.7 macrophages; test: Antibody-dependent cellular phagocytosis (ADCP), RAW 264.7 macrophages and Spike RBD coated magnetic beads, flow cytometry; assay type: cell-based; settings: 37° C., 2 hours, read-out: SARS-COV-2 ADCP EC50
# Procedure: The ability of the compounds to mediate antibody-dependent cellular phagocytosis (ADCP) was assessed using RAW 264.7 macrophages and Spike RBD coated magnetic beads (https://www.acrobiosystems.com/P3194-SARS-CoV-2-Spike-RBD-coupled-Magnetic-Beads.html). Spike RBD coated magnetic beads (3 ul per well) were added to each well of a round bottom 96-well plates. RAW264.7 cells (50,000 cells per well) were added to the beads. Next, the compounds were administered to predetermined final concentrations. The cell-bead mixtures were incubated at 37° C. for 2 hours. The mixtures were then analyzed by flow cytometry.
# [3] = biological target: T2, SARS-CoV-2 Spike Glycoprotein RBD protein (Severe acute respiratory syndrome coronavirus 2, UniProt P0DTC2); test: Binding of biotinylated ligands to SARS-CoV-2 Spike Glycoprotein RBD protein by ELISA; settings: ELISA; biotinylated ligands; Spike RBD; read-out: ELISA SARS-CoV-2 Spike RBD Protein Binding EC50
# T2 construct: SARS-CoV-2 (COVID-19) S Protein RBD, His Tag; purchased Acro Biosystems SPD-C52H3
# Procedure: Materials. The binding affinity of biotinylated ligands to SARS-CoV-2 Spike Glycoprotein RBD protein was determined by ELISA. The binding assay was performed using the following steps: (1) assay plates (PE B&W Isoplate 96-well Flat Bottom, High Bindi-g - Perkin Elmer 6005580) were coated with 100 ul Anti-6× His tag antibody (Anti-6× His tag Antibody; Abcam ab15149, Mouse Monoclonal; Cambridge, UK) at 5 μg/ml in PBS, incubate 1 hour at 37° C. without shaking. The plates were washed (each wash step of this assay includes four 1-minute washes with 200 ul phosphate-buffered saline-0.05% (w/v) Tween® 20 detergent (PBST)). (2) Plates were blocked with 200 ul PBST-5% BSA (PBSTB; American Bio AB01088-00100; Canton, MA), for an hour at room temperature on a plate shaker (400 rpm). The plates were washed. […] The plates were washed. (4) Ligands were added, 100 ul at a concentration range of 0.1 mM to 100 nM in PBSTB, and incubated for 1 hour at room temperature on a plate shaker (200 RPM). The plates were washed. (5) NeutrAvidin™-HRP (Invitrogen 31030; Waltham, MA) is added, 100 ul at a dilution of 1:20,000 in PBSTB, and incubated for 1 hour at room temperature on a plate shaker (200 RPM). The plates were washed. (6) SuperSignal ELISA Pico Chemiluminescent Substrate (Thermo Scientific 37069; Waltham, MA) was added and incubated for 5 minutes at room temperature on a plate shaker (200 RPM).
# [4] = 293T cells expressing Spike-GFP
Compound,IC50 [1] [nM],EC50 (SARS-CoV-2 Spike protein; [4]),EC50 [2],EC50 [3] [nM],EC50 (SARS-CoV-2 Spike protein; […]) [nM]
CC[C@H](C)[C@H](NC(=O)[C@H](CC(C)C)NC(=O)[C@H](CC(=O)O)NC(=O)[C@H](CO)NC(=O)[C@@H]1CSSC[C@H](NC(=O)[C@@H](NC(=O)[C@H](CCC(=O)O)NC(=O)[C@H](Cc2ccc(O)cc2)NC(=O)[C@@H](NC(=O)[C@H](CCCCN)NC(=O)[C@H](CCC(N)=O)NC(=O)[C@H](CC(C)C)NC(=O)[C@@H](NC(=O)[C@H](Cc2c[nH]c3ccccc23)NC(=O)[C@H](CCC(=O)O)NC(=O)[C@H](CCCCN)NC(=O)[C@H](CC(=O)O)NC(=O)CCOCCOCCOCCOCCNC(=O)CCCC[C@@H]2SC[C@@H]3NC(=O)N[C@@H]32)[C@@H](C)CC)[C@@H](C)CC)[C@@H](C)CC)C(=O)N[C@@H](CCCNC(=N)N)C(=O)N[C@@H](CC(C)C)C(=O)N[C@@H](CC(C)C)C(=O)N[C@@H](CC(=O)O)C(=O)N[C@@H](CCC(=O)O)C(=O)N[C@@H](CC(C)C)C(=O)NCC(=O)N[C@@H](Cc2c[nH]cn2)C(=O)N[C@@H](C)C(=O)N[C@@H](CCC(=O)O)C(=O)N[C@@H](C)C(=O)N[C@@H](CO)C(=O)N[C@@H](CCSC)C(=O)N[C@@H](CCCNC(=N)N)C(=O)N1)C(=O)N[C@@H](Cc1ccc(O)cc1)C(=O)N[C@@H](CCC(=O)O)C(=O)N[C@@H](Cc1ccccc1)C(=O)N[C@@H](CCSC)C(=O)N[C@@H](CCCCN)C(=O)N[C@@H](CCCCN)C(=O)NCC(=O)O [Compound 181] ({Biotin-PEG4}-DKEWILQKIYEICRLLDELGHAEASMRCSDLIYEFMKKG-OH; disulfide 13-28),2.51,0.77 nM and < 0.3 nM,2.1 nM and 3.1 nM,–,–
CC[C@H](C)[C@H](NC(=O)[C@H](CC(C)C)NC(=O)[C@H](CC(=O)O)NC(=O)[C@H](CO)NC(=O)[C@@H](NC(=O)[C@H](CCCNC(=N)N)NC(=O)[C@H](CCSC)NC(=O)[C@H](CO)NC(=O)[C@H](C)NC(=O)[C@H](CCC(=O)O)NC(=O)[C@H](C)NC(=O)[C@H](Cc1c[nH]cn1)NC(=O)CNC(=O)[C@H](CC(C)C)NC(=O)[C@H](CCC(=O)O)NC(=O)[C@H](CC(=O)O)NC(=O)[C@H](CC(C)C)NC(=O)[C@H](CC(C)C)NC(=O)[C@H](CCCNC(=N)N)NC(=O)[C@H](CCSC)NC(=O)[C@@H](NC(=O)[C@H](CCC(=O)O)NC(=O)[C@H](Cc1ccc(O)cc1)NC(=O)[C@@H](NC(=O)[C@H](CCCCN)NC(=O)[C@H](CCC(N)=O)NC(=O)[C@H](CC(C)C)NC(=O)[C@@H](NC(=O)[C@H](Cc1c[nH]c2ccccc12)NC(=O)[C@H](CCC(=O)O)NC(=O)[C@H](CCCCN)NC(=O)[C@H](CC(=O)O)NC(=O)[C@H](CO)NC(=O)C(C)(C)NC(=O)CCOCCOCCOCCOCCNC(=O)CCCC[C@@H]1SC[C@@H]2NC(=O)N[C@@H]21)[C@@H](C)CC)[C@@H](C)CC)[C@@H](C)CC)C(C)C)C(=O)N[C@@H](Cc1ccc(O)cc1)C(=O)N[C@@H](CCC(=O)O)C(=O)N[C@@H](Cc1ccccc1)C(=O)N[C@@H](CCSC)C(=O)N[C@@H](CCCCN)C(=O)N[C@@H](CCCCN)C(=O)N[C@H](C)C(=O)O [Compound 214],–,–,–,0.78,–
Ac-DKEWILQKIYEIMRLLDELGHAEASMRVSDLIYEFMKKGDERLLEEAERLLEEVEREAAAKEAAAKDCAWHLGELVWCT-NH2 (disulfide 68-78) [Compound 146],1,–,0.27 nM,–,0.02
Ac-DKEWILQKIYEIMRLLDELGHAEASMRVSDLIYEFMKKGDERLLEEAERLLEEVERGGDCAWHLGELVWCT-NH2 (disulfide 60-70) [Compound 145],0.97,0.04 nM,0.52 nM,–,–
Ac-DKEWILQKIYEIMRLLDELGHAEASMRVSDLIYEFMKKGDERLLEEAERLLEEVERGGGGDCAWHLGELVWCT-NH2 (disulfide 62-72) [Compound 144],1.17,0.03 nM,0.61 nM,–,–
Ac-DKEWILQKIYEIMRLLDELGHAEASMRVSDLIYEFMKKGDERLLEEAERLLEEVERGGGGGGDCAWHLGELVWCT-NH2 (disulfide 64-74) [Compound 143],1.35,0.05 nM,0.75 nM,–,–
Ac-DKEWILQKIYEIMRLLDELGHAEASMRVSDLIYEFMKKGDERLLEEAERLLEEVERGGGGGGGGDCAWHLGELVWCT-NH2 (disulfide 66-76) [Compound 142],1.35,0.05 nM,0.6 nM,–,–
Ac-DKEWILQKIYEIMRLLDELGHAEASMRVSDLIYEFMKKGDERLLEEAERLLEEVERGQAPGQAPDCAWHLGELVWCT-NH2 (disulfide 66-76) [Compound 147],1.35,–,0.43 nM,–,0.02
Ac-DKEWILQKIYEIMRLLDELGHAEASMRVSDLIYEFMKKGDERLLEEAERLLEEVERPASPASPASPASDCAWHLGELVWCT (disulfide 70-80) [Compound 165],0.83,–,0.07 nM,–,0.11
DKEWILQKIYEIMRLLDELGHAEASMRVSDLIYEFMKKGDERLLEEAERLLEEVEREAAAKEAAAKDCAWHLGELVWCT-NH2 (disulfide 68-78) [Compound 173],1.21,–,0.35 nM,–,0.04
DKEWILQKIYEIMRLLDELGHAEASMRVSDLIYEFMKKGDERLLEEAERLLEEVERGGDCAWHLGELVWCT-NH2 (disulfide 60-70) [Compound 172],1.05,0.02 nM,0.87 nM,–,–
DKEWILQKIYEIMRLLDELGHAEASMRVSDLIYEFMKKGDERLLEEAERLLEEVERGGGGDCAWHLGELVWCT-NH2 (disulfide 62-72) [Compound 171],1.25,0.01 nM,0.41 nM,–,–
DKEWILQKIYEIMRLLDELGHAEASMRVSDLIYEFMKKGDERLLEEAERLLEEVERGGGGGGDCAWHLGELVWCT-NH2 (disulfide 64-74) [Compound 170],1.52,0.02 nM,0.95 nM,–,–
DKEWILQKIYEIMRLLDELGHAEASMRVSDLIYEFMKKGDERLLEEAERLLEEVERGGGGGGGGDCAWHLGELVWCT-NH2 (disulfide 66-76) [Compound 169],1.22,0.01 nM,0.53 nM,–,–
DKEWILQKIYEIMRLLDELGHAEASMRVSDLIYEFMKKGDERLLEEAERLLEEVERGQAPGQAPDCAWHLGELVWCT-NH2 (disulfide 66-76) [Compound 174],1.4,–,0.044 nM,–,0.14
{Biotin-PEG4}-[Aib]SDKEWILQKIYEI[Nle]RLLDELGHAEAS[Nle]RVSDLIY[Aib]FMK[Aib]G [Compound 220],–,–,–,2.55,–
